Measurements taken from patent US4719297A, “Acylphosphine compounds and their use as photoinitiators” (priority 1981, dated 1988).
Read-outs that look alike come from different tables or passages of the source.

What was measured:
[1] = Hardening activity of UP resin A under UV light, temperature/time curve (Table 2); details: 0.2% compound
Protocol: (§1) To measure the hardening activity, the temperature curve for the unsaturated polyester resin (UP resin) was recorded during exposure to UV light. […] To avoid heat losses during the exposure to UV light, the lid was embedded in rigid expanded polyurethane foam. The UV light source used comprised 5 fluorescent tubes (TLAK 40 W/05 from Philips) side by side, at a distance of 8.5 cm from the UP resin surface.
(§2) The hardening time HT25° C.-T.sbsb.max and the maximum hardening temperature Tmax achieved were obtained, as characteristic parameters for the hardening activity, from the recorded temperature/time curves. The hardening time is the interval in which the sample temperature increases from 25° C. to Tmax.
(§3) The Examples and Comparative Examples were carried out using the following unsaturated polyester resins:
Resin A was a 65% strength solution, in styrene, of an unsaturated polyester of maleic acid, o-phthalic acid, ethylene glycol and propylene 1,2-glycol in the molar ratio of 1:2:2.3:0.70, the solution being stabilized with 0.01% of hydroquinone.
(§4) The hardening activity of the novel compounds 1 to 16 (cf. Table 1) was compared with the properties of the following compounds: […]

[2] = Hardening activity of UP resin B under UV light, temperature/time curve (Table 2); details: 0.2% compound
Protocol: as §1, §2, §3
Resin B was a 67% strength solution, in styrene, of an unsaturated polyester of maleic acid, tetrahydrophthalic acid and diethylene glycol in the molar ratio of 1:0.5:1.5, the solution being stabilized with 0.01% of hydroquinone.
as §4

[3] = Hardening activity of UP resin C under UV light, temperature/time curve (Table 2); details: 0.2% compound
Protocol: as §1, §2, §3
Resin C was a 66% strength solution, in styrene, of an unsaturated polyester of maleic acid, o-phthalic acid and propylene 1,2-glycol in the molar ratio of 1:0.5:1.5, the solution being stabilized with 0.01% of hydroquinone.
as §4

[4] = Shelf life of UP resin A containing a photoinitiator, stored at 60° C. (Table 3); type: physicochemical; details: 0.2% initiator, dark
Protocol: (§5) To test the shelf life, 6.6 ml of each of the UP resins A, B and C (cf. Example 5) with an initiator content of 0.2% were introduced into brown sample bottles, and the closed bottles were stored at 60° C. At intervals of about 12 hours, the bottles were turned to determine whether gel particles had formed. As a measure of the shelf life, Table 3 gives the maximum storage time at which gel particles were still not observed.
(§6) In addition to the comparative compounds I, II and III, compound V below was also tested: V 2,4,6-trimethylbenzoyldiphenylphosphine oxide as described in U.S. Pat. No. 4,265,723.
(§7) The numbering scheme of the compounds in Table 3 is based on that of Table 1.

[5] = Photopolymerization of monomer emulsion, properties of resulting polymer dispersions (Table 5); details: for Fikentscher K value / Residual monomers, ethyl acrylate / Residual monomers, methyl acrylate / Solids content: 60 min exposure
Protocol: A monomer emulsion was prepared from 50 parts of methyl acrylate, 50 parts of ethyl acrylate, 1.3 parts of a 40% strength C15 -paraffin sulfonate, 1.3 parts of an adduct of isooctylphenol with 25 units of ethylene oxide (20% strength) and 210 parts of water in a conventional mixing unit.
This emulsion was introduced into a 1 l glass flask provided with an internal thermometer and a stirrer, and was freed from oxygen by twice evacuating the flask and gassing the emulsion with nitrogen. X parts of the photoinitiator in 6.7 parts of water were added, and the reaction vessel was then exposed for 60 minutes to light from a high pressure mercury vapor lamp of Type HQL/R 400 W from Osram, located 30 cm above the vessel. The beginning of polymerization was evident from an increase in the temperature. The amounts of photoinitiator employed and the properties of the resulting polymer dispersions are summerized in Table 5, photoinitiator 4 (cf. Table 1) being compared with photoinitiator VI (described in U.S. Pat. No. 4.257,859).

[6] = type: physicochemical; details: 80° C., closed ampoule
Protocol: 294 parts of partially hydrolyzed polyvinyl acetate (degree of hydrolysis 82 mole %, average degree of polymerization 500) were dissolved in 294 parts of demineralized water at 90° C. by stirring the mixture for several hours. The solution was cooled to 70° C., and therafter 20 parts of 1,1,1-trimethylolpropane triacrylate, 1,0 part of 2,6-di-tert.-butyl-p-cresol and the amount of photoinitiator given in table 6, dissolved in 230 parts of 2-hydroxyethyl methacrylate, were added, with stirring. The homogeneous viscous solution was filtered, and dehydrated and degassed under reduced pressure. A 550 μm thick, nontacky layer was obtained by applying the solution onto steel sheet provided with an adhesive, and drying the layer for 24 hours at room temperature. The printing plate was pre-exposed for 2 seconds and thereafter exposed inagewise, through a negative, to light from a commercial 5 kW exposure unit for the times given in table 6.
The thermal stability of the photosensitive solutions was determined by storing a sample in a closed ampoule at 80° C. In comparison with compound V, the novel photoinitiators improved the stability of the photosensitive mixture by a factor of 2 (see Table 6), with otherwise very similar behavior.

[7] = Minimum exposure time for faultless reproduction of the 3% tonality on photopolymerizable printing plate (Table 7); details: 2 parts photoinitiator; UV about 3,300 μW/cm^2
Protocol: 60 parts by weight of a 1:1:1 copolyamide consisting of PA-6, PA-6.6 and PA-6.13, 30 parts by weight of ethylene glycol bis-(N-methylolacrylamide) ether, 10 parts by weight of benzenesulfonic acid N-(n-butyl)-amide, 150 parts by weight of methanol, 20 parts by weight of water, 0.02 part by weight of a chromium complex dye (CI No. 12,195), 0.3 part by weight of potassium N-nitrosocyclohexylhydroxylamine and 2 parts by weight of the photoinitiator given in Table 7 were dissolved at about 70° C. The photopolymerizable material was brought to a solids content of about 65% by distilling off part of the solvent and was then cast, at 60° C., on to a strip of steel sheet provided with an adhesive, and drying was effected in a drying oven for about 2 hours at 80° C. The resulting photopolymerizable printing plate contained a 0.5 mm thick layer with a solids content of about 95%.
Using a test negative which had, inter alia, 54 screen lines, per centimeter, of 3% tonality, the plate was exposed to a UV light intensity of about 3,300 μW/cm^2 on a flat-plate exposure unit equipped with superactinic fluorescent tubes. The unexposed parts of the plate which were protected from the UV light by the opaque image elements of the negative were then washed out in a spray washer for 5 minutes at 30° C. and under a spray pressure of 5 bar, using an ethanol/water mixture containing 80% of ethanol. The plate was thereafter dried for 6 minutes at 110° C. The minimum exposure time required for faultless reproduction of the 3% tonality was measured, and the results for various photoinitiators are summarized in Table 7.

[8] = Shelf life of resins containing the compounds, overall comparison; type: physicochemical; details: Table 3, in words
Protocol: as §5, §6

[9] = Hardening rate of UV-exposed finish by Konig pendulum method (DIN 53,157) (Table 4); details: for Damping of pendulum: 2 parts photoinitiator
Protocol: An unsaturated polyester was prepared by esterifying 143 parts of tetrahydrophthalic anhydride and 175 parts of maleic anhydride with 260 parts of diethylene glycol. 0.01% of hydroquinone was added, and thereafter a 64% strength solution of the polyester in styrene was prepared (solution D).
For the UV hardening experiments, 10 parts of styrene and 2 parts of the photoinitiator were added to 100 parts of solution D, and the finish was applied to photographic paper on a hardboard base by means of a film spreader (slotwidth 200 μm)
The film was dried in air for about 1 minute and then exposed to light from a 30 watt high pressure mercury vapor lamp of 1 cm arc length (Philips HTQ 7) located 15 cm above the object.
The hardening rate was determined by the Konig pendulum method (DIN 53,157), and is given in Table 4 together with the color measurements carried out on the hardened films.
The numbering scheme for the photoinitiators is based on that of Table 1 and Example 6.

[10] = Shelf life of UP resin B containing a photoinitiator, stored at 60° C. (Table 3); type: physicochemical; details: 0.2% initiator, dark
Protocol: as §5, §6, §7

[11] = Shelf life of UP resin C containing a photoinitiator, stored at 60° C. (Table 3); type: physicochemical; details: 0.2% initiator, dark
Protocol: as §5, §6, §7

[12] = Hardening activity in UP resins, overall comparison
Protocol: as §1, §2, §3, §4

| SMILES | hardening time HT 25°-Tmax [1] | maximum hardening temperature Tmax [1] | hardening time HT 25°-Tmax [2] | maximum hardening temperature Tmax [2] | hardening time HT 25°-Tmax [3] | maximum hardening temperature Tmax [3] | Shelf life [4] | Minimum exposure time required for reproducing the 3% tonality [7] | Damping of pendulum ([9]; exposure time 5 s) | Damping of pendulum ([9]; exposure time 10 s) | Damping of pendulum ([9]; exposure time 15 s) | Damping of pendulum ([9]; exposure time 20 s) | Damping of pendulum ([9]; exposure time 25 s) | Shelf life [10] | Shelf life [11] | other results |
| --- | --- | --- | --- | --- | --- | --- | --- | --- | --- | --- | --- | --- | --- | --- | --- | --- |
| Cc1cc(C)c(C(=O)P(=O)([O-])c2ccccc2)c(C)c1.[Na+] [Compound 4, Sodium 2,4,6-trimethylbenzoylphenylphosphinate] | 5/53 | 117 °C | 4/37 | 125 °C | 5/23 | 122 °C | 190 h | 115 s | – | – | – | – | – | – | – | Fikentscher K value ([5]; 0.04 parts X employed): 156.8; Residual monomers, ethyl acrylate ([5]; 0.04 parts X employed): 0.019%; Residual monomers, methyl acrylate ([5]; 0.04 parts X employed): 0.051%; Solids content ([5]; 0.04 parts X employed): 31.3%; Fikentscher K value ([5]; 1.7 parts X employed): 146.6; Residual monomers, ethyl acrylate ([5]; 1.7 parts X employed): < 0.005%; Residual monomers, methyl acrylate ([5]; 1.7 parts X employed): 0.005%; Solids content ([5]; 1.7 parts X employed): 31.4%; activity compared with photoinitiator VI ([5]; same K value of dispersions, in words): higher activity; content of residual monomers compared with photoinitiator VI ([5]; same starting concentration, in words): substantially lower content of residual monomers; initiation of photopolymerization at very low starting concentrations ([5]; very low starting concentrations, in words): permits photopolymerization even at very low starting concentrations; Stability ([6]; 6 parts of compound): 34 h; shelf life of resins compared with compounds II, III and V [8]: substantially superior; shelf life of resins compared with resins containing I [8]: not significantly different |
| Cc1cc(C)c(C(=O)P(=O)(O)c2ccccc2)c(C)c1 [Compound 12, Methyldiethanolammonium 2,4,6-trimethylbenzoylphenylphosphinate] | 6/15 | 116 °C | 5/08 | 129 °C | 5/23 | 123 °C | – | – | 71 | 92 | 112 | 122 | 130 | – | – | hardening activity compared with compound V ([9]; Table 4, in words): substantially more active hardener; Stability ([6]; 7 parts of compound): 28 h |
| COP(=O)(C(=O)c1c(C)cc(C)cc1C)c1ccccc1 (centres unmarked) [I, methyl 2,4,6-trimethybenzoylphenylphosphinate, reference compound] | 7/45 | 114 °C | 5/23 | 127 °C | 6/53 | 123 °C | 180 h | – | – | – | – | – | – | 155 h | 180 h | hardening activity compared with the novel compounds ([12]; see Example 5, in words): substantially less active hardener |
| COP(=O)([O-])C(C)=O.[Na+] [IV, monosodium monomethylacetylphosphonate, reference compound] | 13/15 | 30 °C | – | – | – | – | – | – | – | – | – | – | – | – | – | hardening outcome (footnote to Tmax) [1]: not hardened; suitability for photohardening ([12]; Table 2, in words): unsuitable for photohardening |
| Cc1cc(C)c(C(=O)P(=O)(c2ccccc2)c2ccccc2)c(C)c1 [V, 2,4,6-trimethylbenzoyldiphenylphosphine oxide, reference compound] | – | – | – | – | – | – | 140 h | 190 s | 43 | 66 | 84 | 102 | 112 | 140 h | 120 h | Stability ([6]; 4 parts of compound): 15 h |
